Laboratory results as given in patent US12110295B2, “WD40 repeat domain protein 5 (WDR5) degradation/disruption compounds and methods of use” (Icahn School of Medicine at Mount Sinai, priority 2018, dated 2024).

Target: WDR5 (Homo sapiens, UniProt P61964)
Assay: Screening of putative WDR5 degraders by Western blot in MV4;11 and/or MIAPACA2 cells
Assay type: cell-based
Design: After WDR5 degrader treatment, cells were collected and lysed; endogenous in cells; host or cells: MV4;11 and/or MIAPACA2
Conditions: summary of screening, FIGS. 6-10
Protocol: MV4;11 cells were treated with DMSO or indicated compounds at 0.1 μM and 0.5 μM for 18 hours. […]. MIAPACA2 cells were treated with DMSO or indicated compounds at 0.5 μM and 1.0 μM for 18 hours.
MIAPACA2 cells were treated with DMSO or indicated compounds at 0.1 μM and 0.5 μM for 18 hours.
MIAPACA2 cells were treated with DMSO or indicated compounds at 0.5 μM and 1.0 μM or at 1.0 μM and 10 μM for 18 hours.
MV4;11 cells were treated with DMSO or indicated compounds at 0.1 μM and 1.0 μM for 18 hours.
WDR5 degraders were dissolved in DMSO and DMSO with no degraders was used as the control. 1×10^6 MV4;11 cells or 1×10^5 MIAPACA2 or 2×10^5 Hela cells were seeded in 2 mL medium for each well in […].
For prescreening of all the compounds, each test compound was added to the medium at indicated concentrations. After 18 h treatment, cells were collected.
After WDR5 degrader treatment, cells were collected and lysed. Total cell lysates were used for western blot. The following primary antibodies were used: WDR5 (Santa Cruz), vinculin (Cell Signaling Technology), tubulin (Cell Signaling Technology), GAPDH (Santa Cruz). Blots were imaged using fluorescence-labeled secondary antibodies on ChemiDoc™ Imaging Systems.

Row | SMILES | effective degradation of WDR5 in MV4;11 and/or MIAPACA2 cells
1 | Cc1ncsc1-c1ccc(CNC(=O)[C@@H]2C[C@@H](O)CN2C(=O)[C@@H](NC(=O)COCCOCC(=O)N2CCN(Cc3cnc(N4CC=C(c5cc(NC(=O)c6c[nH]c(=O)cc6C(F)(F)F)c(N6C[C@@H](C)N(C)[C@@H](C)C6)cc5F)CC4)nc3)CC2)C(C)(C)C)cc1 [XF078-134, N-(4-fluoro-5-(1-(5-((4-(2-(2-(2-(((S)-1-((2S,4R)-4-hydroxy-2-((4-(4-methylthiazol-5-yl)benzyl)carbamoyl)pyrrolidin-1-yl)-3,3-dimethyl-1-oxobutan-2-yl)amino)-2-oxoethoxy)ethoxy)acetyl)piperazin-1-yl)methyl)pyrimidin-2-yl)-1,2,3,6-tetrahydropyridin-4-yl)-2-((3S,5R)-3,4,5-trimethylpiperazin-1-yl)phenyl)-6-oxo-4-(trifluoromethyl)-1,6-dihydropyridine-3-carboxamide] | able to effectively degrade WDR5
2 | Cc1ncsc1-c1ccc(CNC(=O)[C@@H]2C[C@@H](O)CN2C(=O)[C@@H](NC(=O)CCCCCCCCCC(=O)N2CCN(c3ncc(-c4cc(NC(=O)c5ccc(F)cc5C(F)(F)F)c(N5C[C@@H](C)N(C)[C@@H](C)C5)cc4F)cn3)CC2)C(C)(C)C)cc1 [XF078-115, (2S,4R)-1-((S)-2-(11-(4-(5-(2-fluoro-5-(4-fluoro-2-(trifluoromethyl)benzamido)-4-((3S,5R)-3,4,5-trimethylpiperazin-1-yl)phenyl)pyrimidin-2-yl)piperazin-1-yl)-11-oxoundecanamido)-3,3-dimethylbutanoyl)-4-hydroxy-N-(4-(4-methylthiazol-5-yl)benzyl)pyrrolidine-2-carboxamide] | able to effectively degrade WDR5
3 | Cc1ncsc1-c1ccc(CNC(=O)[C@@H]2C[C@@H](O)CN2C(=O)[C@@H](NC(=O)CCCCCCCCCC(=O)N2CCN(Cc3cnc(N4CC=C(c5cc(NC(=O)c6c[nH]c(=O)cc6C(F)(F)F)c(N6C[C@@H](C)N(C)[C@@H](C)C6)cc5F)CC4)nc3)CC2)C(C)(C)C)cc1 [XF078-148, N-(4-fluoro-5-(1-(5-((4-(11-(((S)-1-((2S,4R)-4-hydroxy-2-((4-(4-methylthiazol-5-yl)benzyl)carbamoyl)pyrrolidin-1-yl)-3,3-dimethyl-1-oxobutan-2-yl)amino)-11-oxoundecanoyl)piperazin-1-yl)methyl)pyrimidin-2-yl)-1,2,3,6-tetrahydropyridin-4-yl)-2-((3S,5R)-3,4,5-trimethylpiperazin-1-yl)phenyl)-6-oxo-4-(trifluoromethyl)-1,6-dihydropyridine-3-carboxamide] | able to effectively degrade WDR5
4 | Cc1ncsc1-c1ccc(CNC(=O)[C@@H]2C[C@@H](O)CN2C(=O)[C@@H](NC(=O)COCC(=O)NCCN2CCN(Cc3ccc(F)c(-c4ccc(N5C[C@@H](C)N(C)[C@@H](C)C5)c(NC(=O)c5c[nH]c(=O)cc5C(F)(F)F)c4)c3)CC2)C(C)(C)C)cc1 [XF078-1, N-(2′-fluoro-5′-((4-(2-(2-(2-(((S)-1-((2S,4R)-4-hydroxy-2-((4-(4-methylthiazol-5-yl)benzyl)carbamoyl)pyrrolidin-1-yl)-3,3-dimethyl-1-oxobutan-2-yl)amino)-2-oxoethoxy)acetamido)ethyl)piperazin-1-yl)methyl)-4-((3S,5R)-3,4,5-trimethylpiperazin-1-yl)-[1,1′-biphenyl]-3-yl)-6-oxo-4-(trifluoromethyl)-1,6-dihydropyridine-3-carboxamide] | able to effectively degrade WDR5
5 | Cc1ncsc1-c1ccc(CNC(=O)[C@@H]2C[C@@H](O)CN2C(=O)[C@@H](NC(=O)CCCCCC(=O)N2CC=C(c3cc(NC(=O)c4c[nH]c(=O)cc4C(F)(F)F)c(N4C[C@@H](C)N(C)[C@@H](C)C4)cc3F)CC2)C(C)(C)C)cc1 [XF078-42, N-(4-fluoro-5-(1-(7-(((S)-1-((2S,4R)-4-hydroxy-2-((4-(4-methylthiazol-5-yl)benzyl)carbamoyl)pyrrolidin-1-yl)-3,3-dimethyl-1-oxobutan-2-yl)amino)-7-oxoheptanoyl)-1,2,3,6-tetrahydropyridin-4-yl)-2-((3S,5R)-3,4,5-trimethylpiperazin-1-yl)phenyl)-6-oxo-4-(trifluoromethyl)-1,6-dihydropyridine-3-carboxamide] | able to effectively degrade WDR5
6 | C[C@@H]1CN(c2cc(F)c(-c3cnc(N4CCN(C(=O)CCOCCOCCOCCOCCOCCNc5cccc6c5C(=O)N(C5CCC(=O)NC5=O)C6=O)CC4)nc3)cc2NC(=O)c2ccc(F)cc2C(F)(F)F)C[C@H](C)N1C (stereo partly drawn) [XF078-127, N-(5-(2-(4-(1-((2-(2,6-dioxopiperidin-3-yl)-1,3-dioxoisoindolin-4-yl)amino)-3,6,9,12,15-pentaoxaoctadecan-18-oyl)piperazin-1-yl)pyrimidin-5-yl)-4-fluoro-2-((3S,5R)-3,4,5-trimethylpiperazin-1-yl)phenyl)-4-fluoro-2-(trifluoromethyl)benzamide] | able to effectively degrade WDR5
7 | Cc1ncsc1-c1ccc(CNC(=O)[C@@H]2C[C@@H](O)CN2C(=O)[C@@H](NC(=O)CCCCCCCCCC(=O)N2CC=C(c3cc(NC(=O)c4c[nH]c(=O)cc4C(F)(F)F)c(N4C[C@@H](C)N(C)[C@@H](C)C4)cc3F)CC2)C(C)(C)C)cc1 [XF078-46, N-(4-fluoro-5-(1-(11-(((S)-1-((2S,4R)-4-hydroxy-2-((4-(4-methylthiazol-5-yl)benzyl)carbamoyl)pyrrolidin-1-yl)-3,3-dimethyl-1-oxobutan-2-yl)amino)-11-oxoundecanoyl)-1,2,3,6-tetrahydropyridin-4-yl)-2-((3S,5R)-3,4,5-trimethylpiperazin-1-yl)phenyl)-6-oxo-4-(trifluoromethyl)-1,6-dihydropyridine-3-carboxamide] | able to effectively degrade WDR5
8 | C[C@@H]1CN(c2cc(F)c(-c3cnc(N4CCN(C(=O)CCOCCOCCOCCNc5cccc6c5C(=O)N(C5CCC(=O)NC5=O)C6=O)CC4)nc3)cc2NC(=O)c2ccc(F)cc2C(F)(F)F)C[C@H](C)N1C (stereo partly drawn) [XF078-125, N-(5-(2-(4-(3-(2-(2-(2-((2-(2,6-dioxopiperidin-3-yl)-1,3-dioxoisoindolin-4-yl)amino)ethoxy)ethoxy)ethoxy)propanoyl)piperazin-1-yl)pyrimidin-5-yl)-4-fluoro-2-((3S,5R)-3,4,5-trimethylpiperazin-1-yl)phenyl)-4-fluoro-2-(trifluoromethyl)benzamide] | able to effectively degrade WDR5
9 | Cc1ncsc1-c1ccc(CNC(=O)[C@@H]2C[C@@H](O)CN2C(=O)[C@@H](NC(=O)COCC(=O)N2CCN(Cc3cnc(N4CC=C(c5cc(NC(=O)c6c[nH]c(=O)cc6C(F)(F)F)c(N6C[C@@H](C)N(C)[C@@H](C)C6)cc5F)CC4)nc3)CC2)C(C)(C)C)cc1 [XF078-132, N-(4-fluoro-5-(1-(5-((4-(2-(2-(((S)-1-((2S,4R)-4-hydroxy-2-((4-(4-methylthiazol-5-yl)benzyl)carbamoyl)pyrrolidin-1-yl)-3,3-dimethyl-1-oxobutan-2-yl)amino)-2-oxoethoxy)acetyl)piperazin-1-yl)methyl)pyrimidin-2-yl)-1,2,3,6-tetrahydropyridin-4-yl)-2-((3S,5R)-3,4,5-trimethylpiperazin-1-yl)phenyl)-6-oxo-4-(trifluoromethyl)-1,6-dihydropyridine-3-carboxamide] | able to effectively degrade WDR5
